According to US9290453B2 (Merck Sharp & Dohme Corp., priority 2010, dated 2016):
Where a name gives a salt, the structure may show the parent alone.

Target: T1, hCRTH2 (Homo sapiens, UniProt Q9Y5Y4)
T1 construct: expressed in transfected cells; host or cells: HEK (human embryonic kidney) cells expressing hCRTH2
T1 sequence (Q9Y5Y4 1-395): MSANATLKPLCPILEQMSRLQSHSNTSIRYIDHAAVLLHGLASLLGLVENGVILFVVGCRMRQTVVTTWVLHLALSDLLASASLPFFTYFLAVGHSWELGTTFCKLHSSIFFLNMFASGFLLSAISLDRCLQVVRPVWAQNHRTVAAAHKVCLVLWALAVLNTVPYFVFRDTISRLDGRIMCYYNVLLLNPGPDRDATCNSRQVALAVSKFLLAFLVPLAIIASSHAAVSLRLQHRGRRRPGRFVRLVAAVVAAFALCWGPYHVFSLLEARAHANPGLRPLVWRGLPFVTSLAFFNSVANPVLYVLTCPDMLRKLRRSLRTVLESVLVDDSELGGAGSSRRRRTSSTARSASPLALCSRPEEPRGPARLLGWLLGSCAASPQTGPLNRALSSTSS
Assay: Radioligand Binding Assay A ([3H]PGD2 filtration binding, HEK-hCRTH2 membranes)
Procedure: Radioligand binding assays were performed at room temperature in 50 mM Tris-HCl pH 7.4, 1 mM EDTA containing 2 mM MnCl2 and 3.0 nM [^3H]PGD2 (New England Nuclear, Boston, Mass.) (171 Ci mmol^−1), in a final volume of 0.2 ml. Competing ligands were diluted in dimethylsulfoxide (Me2SO) that was kept constant at 1% (v/v) of the final incubation volume. The reaction was initiated by the addition of 8-20 μg of membrane protein prepared from a human embryonic kidney (HEK)-hCRTH2 cell line. Total and non-specific binding were determined in the absence and the presence of 10 μM PGD2, respectively. Under these conditions, specific binding (total minus non-specific) of the radioligand to the receptor reached equilibrium within 50 min and was stable up to 180 min. The reaction was routinely conducted for 60 min at room temperature and terminated by rapid filtration through prewetted (0.3% polyethyleneimine) 96-well printed Filtermate™ (Wallac) using a Tomtec® harvester (Hamden, Conn.). After washing with cold buffer, the filter was dried for 2 minutes in microwave, and Meltilex Scintillator sheet (Wallac) was melted on for 2 min. The radioactivity was measured with Betaplate model 1205 (Wallac).

| Compound | Ki (Table A, rated A-D) | Ki (values in text) |
| --- | --- | --- |
| O=C(O)CCCCc1cc2cc(C(=O)NCc3ccc(C(F)(F)F)nc3)ccc2nc1-c1ccccc1 [Compound 1V, 2-phenyl-6-[[[[6-(trifluoromethyl)-3-pyridinyl]methyl]amino]carbonyl]-3-quinolinepentanoic acid] | 2.1 to 20 nM | – |
| O=C(O)CCCCc1cc2cc(C(=O)NCc3ccc(OC(F)(F)F)cc3)ccc2nc1-c1ccccc1 [Compound 1, 5-(2-phenyl-6-(4-(trifluoromethoxy)benzylcarbamoyl)quinolin-3-yl)pentanoic acid trifluoroacetate] | 2.1 to 20 nM | – |
| CN(Cc1ccc(Cl)cc1)C(=O)c1ccc2nc(-c3ccc(F)cc3)c(CCCCC(=O)O)cc2c1 [Compound 5U, 6-[[[(4-chlorophenyl)methyl]methylamino]carbonyl]-2-(4-fluorophenyl)-3-quinolinepentanoic acid] | 2.1 to 20 nM | – |
| O=C(O)CCCCc1cc2cc(C(=O)N[C@@H]3CCc4cc(Cl)ccc43)cnc2nc1-c1ccc(F)cc1 [Compound 6E, 6-[[(5-chloro-2,3-dihydro-1H-inden-1(R)-yl)amino]carbonyl]-2-(4-fluorophenyl)-1,8-naphthyridine-3-pentanoic acid] | 2.1 to 20 nM | – |
| O=C(O)CCCCc1cc2cc(C(=O)N[C@@H]3CCCc4ccc(F)cc43)cnc2nc1-c1ccc(F)cc1 [Compound 6H, 2-(4-fluorophenyl)-6-[[(7-fluoro-1,2,3,4-tetrahydro-1(R)-naphthalenyl)amino]carbonyl]-1,8-naphthyridine-3-pentanoic acid] | 20.1 to 200 nM | 161 nM |
| C[C@H](CNC(=O)c1ccc2nc(-c3ccc(F)cc3)c(CCCCC(=O)O)cc2c1)c1ccccc1 [Compound 5AC, (S)-5-(2-(4-fluorophenyl)-6-((2-phenylpropyl)carbamoyl)quinolin-3-yl)pentanoic acid] | 2.1 to 20 nM | – |
| N#Cc1ccc([C@H](NC(=O)c2ccc3nc(-c4ccc(F)cc4)c(CCCCC(=O)O)cc3c2)C(F)(F)F)cc1 [Compound 5T] | 20.1 to 200 nM | – |
| C[C@H](NC(=O)c1ccc2nc(-c3ccc(F)cc3)c(CCCCC(=O)O)cc2c1)c1cc(Cl)cc(Cl)c1 [Compound 5Y, 6-[[[1(S)-(3,5-dichlorophenyl)ethyl]amino]carbonyl]-2-(4-fluorophenyl)-3-quinolinepentanoic acid] | 2.1 to 20 nM | – |
| C[C@H](NC(=O)c1cnc2nc(-c3ccc(F)cc3)c(CCCCC(=O)O)cc2c1)c1ccc(Cl)cc1 [Compound 6J, 6-[[[1(S)-(4-chlorophenyl)ethyl]amino]carbonyl]-2-(4-fluorophenyl)-1,8-naphthyridine-3-pentanoic acid] | 20.1 to 200 nM | – |
| N#Cc1ccc([C@@H](NC(=O)c2ccc3nc(-c4ccc(F)cc4)c(CCCCC(=O)O)cc3c2)C(F)(F)F)cc1 [Compound 5Q, 6-[[[1(R)-(4-cyanophenyl)-2,2,2-trifluoroethyl]amino]carbonyl]-2-(4-fluorophenyl)-3-quinolinepentanoic acid] | 2.1 to 20 nM | – |
| O=C(O)CCCCc1cc2cc(C(=O)N[C@H]3CCc4cc(Cl)ccc43)cnc2nc1-c1ccc(F)cc1 [Compound 6L, 6-[[(5-chloro-2,3-dihydro-1H-inden-1(S)-yl)amino]carbonyl]-2-(4-fluorophenyl)-1,8-naphthyridine-3-pentanoic acid] | 2.1 to 20 nM | – |
| O=C(O)CCCCc1cc2cc(C(=O)N[C@@H]3CCCc4cc(Cl)ccc43)cnc2nc1-c1ccc(F)cc1 [Compound 6G, 6-[[(6-chloro-1,2,3,4-tetrahydro-1(R)-naphthalenyl)amino)carbonyl]-2-(4-fluorophenyl)-1,8-naphthyridine-3-pentanoic acid] | 2.1 to 20 nM | 6.3 nM |
| O=C(O)CCCCc1cc2cc(C(=O)N[C@@H]3CCc4cc(Cl)ccc43)ccc2nc1-c1ccc(F)cc1 [Compound 5o, 6-[[(5-chloro-2,3-dihydro-1H-inden-1(R)-yl)amino]carbonyl)-2-(4-fluorophenyl)-3-quinolinepentanoic acid] | 2.1 to 20 nM | 2.7 nM |
| O=C(O)CCCCc1cc2cc(C(=O)N[C@H]3CCc4cc(Cl)ccc43)ccc2nc1-c1ccc(F)cc1 [Compound 5R, 6-[[(5-chloro-2,3-dihydro-1H-inden-1(S)-yl)amino]carbonyl]-2-(4-fluorophenyl)-3-quinolinepentanoic acid] | 2.1 to 20 nM | – |

Continued, values first:

| Ki (Table A, rated A-D) | Ki (values in text) | Compound |
| --- | --- | --- |
| 201 to 700 nM | 570 nM | O=C(O)CCCCc1cc2cc(C(=O)NCCCN3CCCC3)ccc2nc1-c1ccccc1 [Compound 1Z, 2-phenyl-6-[[[3-(1-pyrrolidinyl)propyl]amino]carbonyl]-3-quinolinepentanoic acid] |
| 2.1 to 20 nM | – | CN(Cc1ccccc1)C(=O)c1ccc2nc(-c3ccccc3)c(CCCCC(=O)O)cc2c1 [Compound 1U, 6-[[methyl(phenylmethyl)amino]carbonyl]-2-phenyl-3-quinolinepentanoic acid] |
| 0.1 to 2 nM | – | C[C@@H](NC(=O)c1ccc2cc(-c3ccccc3)c(CCCCC(=O)O)nc2c1)c1ccc(Cl)cc1 [Compound 3F, 7-[[[1(R)-(4-chlorophenyl)ethyl]amino]carbonyl]-3-phenyl-2-quinolinepentanoic acid] |
| 2.1 to 20 nM | 3.8 nM | O=C(O)CCCCc1cc2cc(C(=O)N[C@@H]3CCc4ccccc43)ccc2nc1-c1ccccc1 [Compound 1M, 6-[[(2,3-dihydro-1H-inden-1(R)-yl)amino]carbonyl]-2-phenyl-3-quinolinepentanoic acid] |
| 2.1 to 20 nM | – | O=C(O)CCCCc1cc2cc(C(=O)N[C@H]3CCc4ccccc43)ccc2nc1-c1ccccc1 [Compound 1N, 6-[[(2,3-dihydro-1H-inden-1(S)-yl)amino]carbonyl]-2-phenyl-3-quinolinepentanoic acid] |
| 2.1 to 20 nM | – | O=C(O)CCCCc1cc2cc(C(=O)N[C@@H](c3ccccc3)C(F)(F)F)ccc2nc1-c1ccccc1 [Compound 1G, 2-phenyl-6-[[(2,2,2-trifluoro-1(S)-phenylethyl)amino]carbonyl]-3-quinolinepentanoic acid] |
| 2.1 to 20 nM | – | O=C(O)CCCCc1cc2cc(C(=O)N[C@H]3CCc4ccccc43)ccc2nc1-c1ccc(F)cc1 [Compound 5K, 6-[[(2,3-dihydro-1H-inden-1(S)-yl)amino]carbonyl]-2-(4-fluorophenyl)-3-quinolinepentanoic acid] |
| 2.1 to 20 nM | – | O=C(O)CCCCc1cc2cc(C(=O)NCCCN3CCCC3=O)ccc2nc1-c1ccccc1 [Compound 1AA, 6-[[[3-(2-oxo-1-pyrrolidinyl)propyl]amino]carbonyl]-2-phenyl-3-quinolinepentanoic acid] |
| 2.1 to 20 nM | – | O=C(O)CCCCc1cc2cc(C(=O)N3CC[C@H](c4ccccc4)C3)ccc2nc1-c1ccccc1 [Compound 1J, 2-phenyl-6-[(3(R)-phenyl-1-pyrrolidinyl)carbonyl]-3-quinolinepentanoic acid] |
| 20.1 to 200 nM | – | O=C(O)CCCCc1cc2cc(C(=O)NCc3ccncc3)ccc2nc1-c1ccccc1 [Compound 1Y, 2-phenyl-6-[[(4-pyridinylmethyl)amino]carbonyl]-3-quinolinepentanoic acid] |
| 2.1 to 20 nM | – | O=C(O)CCCCc1cc2cc(C(=O)N[C@@H]3CCc4ccccc43)ccc2nc1-c1ccc(F)cc1 [Compound 5E, 6-[[(2,3-dihydro-1H-inden-1(R)-yl)amino]carbonyl]-2-(4-fluorophenyl)-3-quinolinepentanoic acid] |
| 20.1 to 200 nM | – | O=C(O)CCCCc1nc2cc(C(=O)N3CCC[C@@H](c4ccccc4)C3)ccc2cc1-c1ccccc1 [Compound 3J, 3-phenyl-7-[(3(S)-phenyl-1-piperidinyl)carbonyl]-2-quinolinepentanoic acid] |
| 0.1 to 2 nM | – | C[C@@H](NC(=O)c1ccc2cc(-c3ccccc3)c(CCCCC(=O)O)nc2c1)c1ccc(F)cc1 [Compound 4E, (R)-5-(7-(1-(4-fluorophenyl)ethylcarbamoyl)-3-phenylquinolin-2-yl)pentanoic acid] |
| 2.1 to 20 nM | 2.7 nM | O=C(O)CCCCc1nc2cc(C(=O)N3CC[C@@H](c4ccccc4)C3)ccc2cc1-c1ccccc1 [Compound 3H, 3-phenyl-7-[(3(S)-phenyl-1-pyrrolidinyl)carbonyl]-2-quinolinepentanoic acid] |
| 2.1 to 20 nM | – | O=C(O)CCCCc1cc2cc(C(=O)N[C@H]3CCCc4ccccc43)ccc2nc1-c1ccc(F)cc1 [Compound 5M, 2-(4-fluorophenyl)-6-[[(1,2,3,4-tetrahydro-1(S)-naphthalenyl)amino]carbonyl]-3-quinolinepentanoic acid] |
